Measurements from patent US7335248B2, “Marine antifouling coating compositions” (Novus International, Inc., priority 2005, dated 2008).
“And” between values parts separate entries of the source, which are not always exact repeats. Identical values can stand only once.

Columns and labels:
barnacle cyprids = assay: Barnacle cyprid settlement assay (method of Rittschof et al.), EC50 by probit analysis; assay type: in vivo, Balanus amphitrite amphitrite
Description: In this case, the defined effect is that the cyprids have not settled and have not attached to the Petri dish. Thus, in the attached data set, the “set” column indicates the total number of cyprid larvae that have settled and attached on the surface of the Petri dish and “non-set” indicates the total number of cyprids that remain swimming in the seawater and have not settled on the surface of the Petri dish.
Briefly, the barnacle adults are cultured in the laboratory and allowed to spawn naturally. The larvae are harvested and grown in artificial culture systems until they reach the cyprid stage at which time the larvae become competent to attach to surfaces. Once attached, the cyprids transform into a pinhead barnacle, thus becoming permanently attached to the surface. Rittschof D, Clare A S, Gerhart D J, Avelin Mary, Bonavetura J (1991) Barnacle in vitro assays for biologically active substances: toxicity and settlement assays using mass cultured Balanus amphitrite amphitrite Darwin. Biofouling (1992) 6:115-122.
(§1) Five replicates (e.g., a-e) for each concentration and the control were collected.

[1] = Solubility in seawater at the levels added in the cyprid assay; assay type: physicochemical; settings: at the levels added (up to 0.1 mg/ml)
Source text: as §1

barnacles [2] = assay: Six month static immersion fouling test of painted PVC panels (open ocean, Tuticorin, India); assay type: in vivo; settings: for Total barnacle Count / Mean ± SD (barnacle count): 6 months; for Total barnacle Count: both duplicate panels; for Mean ± SD (barnacle count): four panel surfaces
Source text: The reported data were extracted from the raw data as described below, and are shown as total barnacle counts for both duplicate panels of each test formulation. In Table 4, the mean and standard deviation of the data derived from the four panels' surfaces of the duplicate panels for each group. The barnacle counts along the edges were not considered in this evaluation because of the expected uneven coating and inherent tendency of barnacles to first attach to edges. In addition, coatings along the edges can be easily damaged or uneven. Thus, for evaluation purposes only the coated surfaces of the flat areas were considered for this evaluation.
Zinc Omadine was used as the positive control for this series of tests. It is important to note here that fouling is continuous throughout the year at the Tuticorin, India site and the degree of settlement is generally the same for the same coating system.

barnacles [3] = assay: Nine month static immersion testing in the Indian Ocean; assay type: in vivo; settings: 9-month static immersion
Source text: Table 5 summarizes the anti-fouling data from the nine-month immersion test, performed as described above for the six month tests.

[4] = 1e-5 mg/ml, Total of five replicates
[5] = 1e-4 mg/ml, Total of five replicates
[6] = 0.001 mg/ml, Total of five replicates
[7] = 0.01 mg/ml, Total of five replicates
[8] = 0.1 mg/ml, Total of five replicates

In the case of `CSCCC(O)C(=O)[O-].CSCCC(O)C(=O)[O-].[Cu+2]` (centres unmarked) [HMTBA-Cu, copper 2-hydroxy-4-methylthiobutanoate chelate], the “% of set” value (barnacle cyprids; [4]) is reported as 74%, the Non set (barnacle cyprids; [4]) is reported as 86 and the Set (barnacle cyprids; [4]) is reported as 241. For the same molecule, the “% of set” value (barnacle cyprids; 1e-5 mg/ml, single replicate) was 77% and 70% and 74% and 68% and 82%, the Non set (barnacle cyprids; 1e-5 mg/ml, single replicate) was 14 and 21 and 15 and 25 and 11 and the Set (barnacle cyprids; 1e-5 mg/ml, single replicate) was 46 and 48 and 42 and 54 and 51. The “% of set” value (barnacle cyprids; [5]) was 71%, the Non set (barnacle cyprids; [5]) was 89 and the Set (barnacle cyprids; [5]) was 213. For the same molecule, the “% of set” value (barnacle cyprids; 1e-4 mg/ml, single replicate) was 66% and 79% and 63% and 73% and 72%, the Non set (barnacle cyprids; 1e-4 mg/ml, single replicate) was 11 and 12 and 29 and 16 and 21 and the Set (barnacle cyprids; 1e-4 mg/ml, single replicate) was 21 and 46 and 49 and 43 and 54. The “% of set” value (barnacle cyprids; [6]) was 53%, the Non set (barnacle cyprids; [6]) was 155 and the Set (barnacle cyprids; [6]) was 173. For the same molecule, the “% of set” value (barnacle cyprids; 0.001 mg/ml, single replicate) was 46% and 56% and 42% and 55% and 65%, the Non set (barnacle cyprids; 0.001 mg/ml, single replicate) was 27 and 34 (2×) and 42 and 18 and the Set (barnacle cyprids; 0.001 mg/ml, single replicate) was 23 and 44 and 31 and 41 and 34. For the same molecule, the “appearance and swimming behavior of cyprids” value (barnacle cyprids; 0.01 mg/ml and higher (so in the source)) was “no adverse effects”, the “% of set” value (barnacle cyprids; [7]) was 10% and the Non set (barnacle cyprids; [7]) was 285. For the same molecule, the Set (barnacle cyprids; [7]) was 30, the “% of set” value (barnacle cyprids; 0.01 mg/ml, single replicate) was 9% and 6% and 8% (2×) and 24% and the Non set (barnacle cyprids; 0.01 mg/ml, single replicate) was 79 and 66 and 59 and 25 and 56. The Set (barnacle cyprids; 0.01 mg/ml, single replicate) was 8 (2×) and 4 and 5 (2×), the “toxic effects on the cyprids” value (barnacle cyprids; 0.1 mg per ml) was “death of all cyprids” and the “% of set” value (barnacle cyprids; [8]) was 0%. For the same molecule, the Non set (barnacle cyprids; [8]) was 314, the Set (barnacle cyprids; [8]) was 0 and the “% of set” value (barnacle cyprids; 0.1 mg/ml, single replicate) was 0%. For the same molecule, the Non set (barnacle cyprids; 0.1 mg/ml, single replicate) was 69 and 94 and 54 and 59 and 38, the Set (barnacle cyprids; 0.1 mg/ml, single replicate) was 0 and the EC50 (barnacle cyprids; barnacle cyprids not settled/attached to Petri dish, probit analysis) was 1.8 µg/mL. The “inhibition of barnacle cyprid settlement” value (barnacle cyprids; in vivo) was “biologically active as inhibitors of barnacle cyprid settlement”, the SLOPE (barnacle cyprids; probit analysis, barnacle settlement) was 1.567 and the solubility in seawater [1] was “soluble in seawater at the levels added”. For the same molecule, the “Total barnacle Count” value (barnacles [2]; CUAB coating, 1% (w/w)) was 472, the “Mean ± SD (barnacle count)” value (barnacles [2]; CUAB coating, 1% (w/w)) was 118.0 ± 158.0 and the “Total barnacle Count” value (barnacles [2]; CUAB coating, 3% (w/w)) was 170. The “Mean ± SD (barnacle count)” value (barnacles [2]; CUAB coating, 3% (w/w)) was 42.5 ± 21.1, the “Total barnacle Count” value (barnacles [2]; CUAB coating, 5% (w/w)) was 126 and the “Mean ± SD (barnacle count)” value (barnacles [2]; CUAB coating, 5% (w/w)) was 31.4 ± 46.4. The “Total barnacle Count” value (barnacles [2]; CUAB coating, 10% (w/w)) was 123, the “Mean ± SD (barnacle count)” value (barnacles [2]; CUAB coating, 10% (w/w)) was 30.8 ± 12.9 and the “Total barnacle Count” value (barnacles [2]; CUSP coating, 1% (w/w)) was 4. For the same molecule, the “Mean ± SD (barnacle count)” value (barnacles [2]; CUSP coating, 1% (w/w)) was 1.0 ± 1.7, the “Total barnacle Count” value (barnacles [2]; CUSP coating, 3% (w/w)) was 6 and the “Mean ± SD (barnacle count)” value (barnacles [2]; CUSP coating, 3% (w/w)) was 1.5 ± 2.6. The “Total barnacle Count” value (barnacles [2]; CUSP coating, 5% (w/w)) was 8, the “Mean ± SD (barnacle count)” value (barnacles [2]; CUSP coating, 5% (w/w)) was 2.0 ± 2.4 and the “Total barnacle Count” value (barnacles [2]; CUSP coating, 10% (w/w)) was 9. The “Mean ± SD (barnacle count)” value (barnacles [2]; CUSP coating, 10% (w/w)) was 2.3 ± 1.9, the “Total barnacle Count” value (barnacles [2]; MFAB coating, 1% (w/w)) was 8 and the “Mean ± SD (barnacle count)” value (barnacles [2]; MFAB coating, 1% (w/w)) was 2.0 ± 2.4. The “Total barnacle Count” value (barnacles [2]; MFAB coating, 3% (w/w)) was 13, the “Mean ± SD (barnacle count)” value (barnacles [2]; MFAB coating, 3% (w/w)) was 3.3 ± 4.5 and the “Total barnacle Count” value (barnacles [2]; MFAB coating, 5% (w/w)) was 11. The “Mean ± SD (barnacle count)” value (barnacles [2]; MFAB coating, 5% (w/w)) was 2.8 ± 4.2, the “Total barnacle Count” value (barnacles [2]; MFAB coating, 10% (w/w)) was 4 and the “Mean ± SD (barnacle count)” value (barnacles [2]; MFAB coating, 10% (w/w)) was 1.0 ± 1.7. The “efficacy / barnacle settlement” value (barnacles [2]; copper self-polishing and metal-free ablative coatings, six months of exposure) was “significant efficacy”, the “LS MEAN BARNACLES” value (barnacles [3]; CUSP PAINT) was 16 and the “LS MEAN BARNACLES” value (barnacles [3]; MFAB PAINT) was 1.25.
In the case of `CSCC[C@H](N)C(=O)O.[Zn]` [Zn-Methionine, zinc methionine], the “LS MEAN BARNACLES” value (barnacles [3]; CUSP PAINT) is reported as 0.5 and the “LS MEAN BARNACLES” value (barnacles [3]; MFAB PAINT) is reported as 8.
